We go through 20 molecules from article PMC7915867, “Discovery of a Small Molecule Inhibitor of Human Adenovirus Capable of Preventing Escape from the Endosome” (International Journal of Molecular Sciences, 2021).

Like-named read-outs stand apart in the source and are kept apart here.

Data set [1] relates to HAdV5-GFP. The data set is described as follows: microbe, parasite or virus in culture. It counts as cell-based, human adenovirus. The note with it: for Plaque Assay (10 μM) (%) Inhibition: HAdV5-GFP, low MOI (0.06 vp/cell), 293β5 cell line; for inhibition at 10 µM / IC50: Human adenovirus sp.; for inhibition at 10 µM: read-out: Plaque Assay (10 μM) (%) Inhibition; for IC50: read-out: Plaque Assay IC50; for Selectivity Index (SI): ratio of CC50 to IC50 in plaque assay. Here is the method:
Compounds were measured at concentrations of 10 μM and in a dose−response assay ranging from 10 to 0.3 μM using low MOI infections (0.06 vp/cell) in a plaque assay. […] Cells were infected with HAdV5-GFP (0.06 vp/cell) and rocked for 2 h at 37 °C, when cells reached 80%–90% confluency. When the incubation was finished, the inoculum was removed followed by washing the cells once with PBS. […] The compounds were also added to the mixture in concentrations ranging from 10 to 0.3 μM. After incubation for 7 days at 37 °C, we scanned plates with a Typhoon FLA 9000 imager (GE Healthcare Life Sciences, MA, USA) and quantified plaques with ImageJ [47].

Data set [2] can be described thus: Cytotoxicity assay (AlamarBlue). The note with it: human, A549 cells, A549 cell line. Format: cell-based. Here is the method:
The cytotoxicity of these derivatives was tested by commercial kit AlamarBlue® (Ref. DAL1025, Invitrogen, MA, USA). […] The cytotoxic concentration 50 (CC50) value was obtained by using the statistical package GraphPad Prism. This assay was performed in duplicate.

Data set [3] deals with HAdV5-GFP. The note with it: read-out: IC50 (anti-HAdV); cited from earlier work.
In data set [4] the test system is A549 cells. The note with it: cited from earlier work.

In the case of `O=C(NCCN1CCOCC1)c1cc(Cl)ccc1O` [Compound 23, 5-Chloro-2-hydroxy-N-(2-morpholinoethyl)benzamide], in data set [1], the “Plaque Assay (10 μM) (%) Inhibition” value was “neither piperazine analogue (21 and 22) nor the morpholine analogue 23 showed meaningful inhibitory activity”; the inhibition at 10 µM is 0%.
Consider `CN1CCN(C(=O)c2cc(Cl)ccc2O)CC1` [Compound 28, (5-Chloro-2-hydroxyphenyl)(4-methylpiperazin-1-yl)methanone], for which the inhibition at 10 µM in data set [1] turned out to be 0%.
In the case of `CN1CCN(CCNC(=O)c2cc(Cl)ccc2O)CC1` [Compound 22, 5-Chloro-2-hydroxy-N-(2-(4-methylpiperazin-1-yl)ethyl)benzamide], in data set [1], the “Plaque Assay (10 μM) (%) Inhibition” value is “neither piperazine analogue (21 and 22) nor the morpholine analogue 23 showed meaningful inhibitory activity”; the inhibition at 10 µM is 0%.
As for `O=C(NCCC1CCCCC1)c1cc(Cl)ccc1O` [Compound 20, 5-Chloro-N-(2-cyclohexylethyl)-2-hydroxybenzamide], in data set [1], the inhibition at 10 µM was found to be 97.8 ± 1.7%, the IC50 was 1 ± 0.1 µM and the “Selectivity Index (SI)” value turned out to be 64.3. The CC50 at 48 h in data set [2] was determined as 66.3 ± 7.9 µM.
Turning to `CC(C)(C)OC(=O)N1CCN(CCNC(=O)c2cc(Cl)ccc2O)CC1` [Compound 21, tert-Butyl 4-(2-(5-chloro-2-hydroxybenzamido)ethyl)piperazine-1-carboxylate], in data set [1], the “Plaque Assay (10 μM) (%) Inhibition” value is “neither piperazine analogue (21 and 22) nor the morpholine analogue 23 showed meaningful inhibitory activity”; the inhibition at 10 µM is 22.2 ± 13.2%.
Consider `O=C(NC1CCCC1)c1cc(Cl)ccc1O` [Compound 11, 5-Chloro-N-cyclopentyl-2-hydroxybenzamide], for which the inhibition at 10 µM in data set [1] came out at 22.6 ± 7.4%.
The same measure, in the same setting: as for `CC(C)(C)OC(=O)NCCCCNC(=O)c1cc(Cl)ccc1O` [Compound 25, tert-Butyl (4-(5-chloro-2-hydroxybenzamido)butyl)carbamate], the figure is 74 ± 5.7%.
With `C[C@H](NC(=O)c1cc(Cl)ccc1O)C1CCCCC1` [Compound 17, (S)-5-Chloro-N-(1-cyclohexylethyl)-2-hydroxybenzamide], in data set [1], the inhibition at 10 µM stood at 100%, the IC50 came out at 0.51 ± 0.14 µM and the “Selectivity Index (SI)” value is 45.1. The CC50 at 48 h in data set [2] was found to be 23 ± 1.3 µM.
`O=C(Nc1cc(F)cc(C(F)(F)F)c1)c1cc(Cl)ccc1O` [Compound 4]: in data set [3], the IC50 is 0.18 µM. For the same molecule, the CC50 in data set [4] was 120 µM.
Turning to `CCCCCCNC(=O)c1cc(Cl)ccc1O` [Compound 24, 5-Chloro-N-hexyl-2-hydroxybenzamide], in data set [1], the inhibition at 10 µM was 98.5 ± 2.1%, the IC50 came out at 3.73 ± 0.64 µM and the “Selectivity Index (SI)” value was 6.4. The molecule also returned a 50% cytotoxic concentration (CC50) at 48 h in data set [2] of 23.8 ± 3.1 µM.
Consider `O=C(NC1CCCCC1)c1cc(Cl)ccc1O` [Compound 12, 5-Chloro-N-cyclohexyl-2-hydroxybenzamide], for which the inhibition at 10 µM in data set [1] stood at 57.6 ± 0.2%.
Consider `O=C(NC1CCOCC1)c1cc(Cl)ccc1O` [Compound 14, 5-Chloro-2-hydroxy-N-(tetrahydro-2H-pyran-4-yl)benzamide], for which, in data set [1], the “Plaque Assay (10 μM) (%) Inhibition” value is “completely inactive” and the inhibition at 10 µM was 0%.
For `CC(C)(C)OC(=O)N1CCC(CNC(=O)c2cc(Cl)ccc2O)CC1` [Compound 19, tert-Butyl 4-((5-chloro-2-hydroxybenzamido)methyl)piperidine-1-carboxylate], the inhibition at 10 µM in data set [1] worked out at 88.5 ± 1.9%.
Consider `O=C(c1cc(Cl)ccc1O)N1CCCCC1` [Compound 26, (5-Chloro-2-hydroxyphenyl)(piperidin-1-yl)methanone], for which the inhibition at 10 µM in data set [1] was 0%.
As to `CC(=O)N1CCN(C(=O)c2cc(Cl)ccc2O)CC1` [Compound 27, 1-(4-(5-Chloro-2-hydroxybenzoyl)piperazin-1-yl)ethanone], the inhibition at 10 µM in data set [1] stood at 0%.
On to `CC(C)(C)OC(=O)N1CCC(NC(=O)c2cc(Cl)ccc2O)CC1` [Compound 15, tert-Butyl 4-(5-chloro-2-hydroxybenzamido)piperidine-1-carboxylate], for which the inhibition at 10 µM in data set [1] came to 52.2 ± 7.1%.
As for `O=C(NC1CCCCCC1)c1cc(Cl)ccc1O` [Compound 13, 5-Chloro-N-cycloheptyl-2-hydroxybenzamide], in data set [1], the inhibition at 10 µM is 99.6 ± 0.2%, the half-maximal inhibitory concentration (IC50) was determined as 4.7 ± 0.1 µM and the “Selectivity Index (SI)” value came out at 6.6. The molecule also had a CC50 at 48 h in data set [2] of 30.9 ± 6.3 µM.
In the case of `CC1(Nc2ccc(NC(=O)c3cc(Cl)ccc3O)c(Cl)c2)CCCC1` [Compound 5], in data set [3], the IC50 was 0.27 µM. For the same molecule, in data set [4], the CC50 is 157 µM.
Regarding `O=C(NCC1CCOCC1)c1cc(Cl)ccc1O` [Compound 18, 5-Chloro-2-hydroxy-N-((tetrahydro-2H-pyran-4-yl)methyl)benzamide], in data set [1], the “Plaque Assay (10 μM) (%) Inhibition” value is “no anti-HAdV activity” and the inhibition at 10 µM turned out to be 0%.
For the molecule `CC(C)C(NC(=O)c1cc(Cl)ccc1O)C(=O)Nc1ccc([N+](=O)[O-])cc1Cl` (stereo not shown) [Compound 6], the IC50 in data set [3] is 0.45 µM. In addition, in data set [4], the CC50 was 200 µM.
